2 molecules from US10695346B2, “4,6-pyrimidinylene derivatives and uses thereof” (Dana-Farber Cancer Institute, Inc., priority 2015, dated 2020) can be followed below.

The test system of experiment [1] is TP53 wild type MCF7 cells. Briefly: Cell proliferation assay (Cell TITER-GLO). As to conditions: even at 5 μM; FIG. 3D.
Description: To determine cell proliferation, cells were plated at 2×10^3 cells per well of 96-well plate. Cells were incubated and assayed at indicated times using Cell TITER-GLO Luminescent Cell Viability assay (Promega). Cells were allowed to equilibrate to room temperature for 15 minutes, then an equal volume of the Cell TITER-GLO reagent was added to wells and incubated for 15 minutes on an orbital shaker. Luminescence was recorded according to the manufacturer's protocol.
Another experiment has as its target T1, PIP4K2A (Homo sapiens, UniProt P48426).
T1 sequence (P48426 1-406): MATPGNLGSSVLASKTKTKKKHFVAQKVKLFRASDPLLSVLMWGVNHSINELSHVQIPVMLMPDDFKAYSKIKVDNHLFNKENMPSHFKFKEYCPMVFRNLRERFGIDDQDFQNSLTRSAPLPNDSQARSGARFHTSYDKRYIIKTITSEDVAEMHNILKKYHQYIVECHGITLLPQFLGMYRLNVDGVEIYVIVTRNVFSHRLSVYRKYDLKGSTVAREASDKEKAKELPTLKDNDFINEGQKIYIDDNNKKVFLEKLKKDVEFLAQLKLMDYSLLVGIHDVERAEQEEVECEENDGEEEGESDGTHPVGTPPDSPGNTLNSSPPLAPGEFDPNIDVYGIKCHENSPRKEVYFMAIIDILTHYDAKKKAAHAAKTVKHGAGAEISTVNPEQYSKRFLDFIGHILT
Briefly: ADP-GLO assay on PIP4K2A. It is filed as biochemical. As to conditions: 0.01 mM ATP, 0.05 mM diC8 PI(5)P. The method, then:
After a further incubation of 40 minutes, 40 μl of Kinase Detection Buffer was added. After a further incubation of 40 min, the […] was read on […] ENVISION for 1 sec/well.
(In ADP-Glo the light output rises with the ADP produced.)

As to `CN(C)C/C=C/C(=O)Nc1ccc(C(=O)Nc2cccc(Nc3cc(-c4cnc5[nH]ccc5c4)ncn3)c2)cc1` [Compound 8, (E)-N-(3-((6-(1H-pyrrolo[2,3-b]pyridin-5-yl)pyrimidin-4-yl)amino)phenyl)-4-(4-(dimethylamino)but-2-enamido)benzamide], the “inhibition of TP53 wild type MCF7 cells” value in experiment [1] is on record as “didn't inhibit”.
The term IC50 denotes the concentration at which inhibition is half-maximal. `CN(C)C/C=C/C(=O)NC1CCCC(C(=O)Nc2cccc(Nc3cc(-c4cnc5[nH]ccc5c4)ncn3)c2)C1` (centres unmarked) [THZ-CE-A-4-9, (E)-N-(3-((6-(1H-pyrrolo[2,3-b]pyridin-5-yl)pyrimidin-4-yl)amino)phenyl)-3-(4-(dimethylamino)but-2-enamido)cyclohexane-1-carboxamide] had an IC50 at PIP4K2A of 0.25 µM.
